Measurements reported in PubChem BioAssay (NCI).
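Compound exposure: 48 hours, 5 concentrations, 96-well plates. TGI: concentration producing complete growth inhibition.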

Assays:
Experiment in all cases: NCI tumour cell line growth inhibition, 48 h
OVCAR-3 ovarian = tested on: OVCAR-3 ovarian
HCT-116 colon = tested on: HCT-116 colon
UACC-257 melanoma = tested on: UACC-257 melanoma
OVCAR-8 ovarian = tested on: OVCAR-8 ovarian
M19-MEL melanoma = tested on: M19-MEL melanoma
SW-620 colon = tested on: SW-620 colon
OVCAR-4 ovarian = tested on: OVCAR-4 ovarian
XF 498 CNS = tested on: XF 498 CNS
OVCAR-5 ovarian = tested on: OVCAR-5 ovarian
SF-268 CNS = tested on: SF-268 CNS
COLO 205 colon = tested on: COLO 205 colon
HCC-2998 colon = tested on: HCC-2998 colon
UACC-62 melanoma = tested on: UACC-62 melanoma
NCI-H522 lung = tested on: NCI-H522 lung
UO-31 renal = tested on: UO-31 renal
HOP-62 NSCLC = tested on: HOP-62 NSCLC
DLD-1 colon = tested on: DLD-1 colon
HT29 colon = tested on: HT29 colon
MALME-3M melanoma = tested on: MALME-3M melanoma
RPMI-8226 leukemia = tested on: RPMI-8226 leukemia
EKVX NSCLC = tested on: EKVX NSCLC
NCI-H460 lung = tested on: NCI-H460 lung
SNB-19 CNS = tested on: SNB-19 CNS
SR leukemia = tested on: SR leukemia
M14 melanoma = tested on: M14 melanoma
NCI-H23 lung = tested on: NCI-H23 lung
SNB-78 CNS = tested on: SNB-78 CNS
K-562 leukemia = tested on: K-562 leukemia
U251 CNS = tested on: U251 CNS
A549 NSCLC = tested on: A549 NSCLC
ACHN renal = tested on: ACHN renal
KM12 colon = tested on: KM12 colon
SK-MEL-28 melanoma = tested on: SK-MEL-28 melanoma
CAKI-1 renal = tested on: CAKI-1 renal
TK-10 renal = tested on: TK-10 renal
NCI-H226 lung = tested on: NCI-H226 lung
SN12C renal = tested on: SN12C renal
HL-60(TB) leukemia = tested on: HL-60(TB) leukemia
LXFL 529 NSCLC = tested on: LXFL 529 NSCLC
SK-MEL-2 melanoma = tested on: SK-MEL-2 melanoma
MOLT-4 leukemia = tested on: MOLT-4 leukemia
A498 renal = tested on: A498 renal
786-0 renal = tested on: 786-0 renal
CCRF-CEM leukemia = tested on: CCRF-CEM leukemia
SK-OV-3 ovarian = tested on: SK-OV-3 ovarian
SNB-75 CNS = tested on: SNB-75 CNS
SF-295 CNS = tested on: SF-295 CNS
HOP-92 NSCLC = tested on: HOP-92 NSCLC
KM20L2 colon = tested on: KM20L2 colon

Measured: TGI

COc1cc(Br)c(CC2NCCc3cc(OC)c(OC)cc32)cc1OC (centres undefined)
> 100 µM: all assays above
